Assay results as given in patent US20250290117A1, “MOLECULAR PHENOTYPIC ANTIMICROBIAL SUSCEPTIBILITY TESTING” (priority 2024, published 2025).

What was measured:
Format in all cases: cell-based
[1] = system: Escherichia coli; assay: Molecular phenotypic antimicrobial susceptibility test (extraction or DNA purification prior to PCR)
Experimental: (§1) Detection of Molecular Phenotypic Antimicrobial Susceptibility. Disclosed herein are the methods for the detection of phenotypic antimicrobial susceptibility via molecular methods. The present invention describes how a specimen 100 with a known microbial load is incubated and then exposed to a panel of antimicrobial agents to determine sensitivity (prevention of growth) or resistance (allowance of growth) to the specific antimicrobial agents tested utilizing molecular methods.
(§2) Sample Collection. Specimens 100 are collected from patients using sterile collection processes that are employed in routine clinical care. Specimens are transported to the testing facility in boric acid preservative.
(§3) Preparation of the Specimens for Testing. […] The process for pathogen isolation includes steps of harvesting the pathogen (e.g., via centrifugation), isolating pathogen DNA via a DNA isolation and/or purification kit, and performing PCR on the pathogen DNA via PCR components (e.g., primers, enzymes, buffers) as would be known to the skilled artisan. […] This aliquot is used for antimicrobial susceptibility testing if indicated based on the pathogen detection results. […] Specimens 100 with lower pathogen loads could also be utilized in the antibiotic susceptibility phase of testing with or without a longer incubation period.
(§4) Preparation of Antimicrobial Susceptibility Testing Plates. Antimicrobial solutions are prepared at known concentrations. The specific antimicrobials and their concentrations are selected based on the pathogen of interest and the described antimicrobial resistance breakpoints for that specimen pathogen and antimicrobial combination. These antimicrobials have been selected based on those commonly utilized by healthcare providers in routine clinical care for the specific type of suspected infection. The number and types of antimicrobials utilized can be customized based on the infection source, pathogen detected, patient-specific factors such as allergies or other health conditions (e.g., chronic kidney disease or concurrent medication use), or healthcare provider preferences such as antimicrobial availability or cost.
(§5) The antimicrobial solutions are prepared in liquid culture media (such as Muller Hinton Broth) to achieve the desired antimicrobial concentration and are then stored at −80° C. until use. For a given specimen, each antimicrobial is tested at a single or multiple antimicrobial concentration(s) which is its established breakpoints for sensitivity. The antimicrobial solutions are prepared and plated out for each specific pathogen. […] This allows for evaluation of pathogen load when no antimicrobial is present.
(§6) Specimen Exposure to Antimicrobial Agents. The 1 mL aliquot of the specimen 100 previously mixed with culture media and incubated is obtained. Using optical density measurements as a guide, the specimen 100 is diluted to 0.5 McFarland.
(§7) Antimicrobial exposure plates are typically placed into an incubator for 12-16 hours.
(§8) Nucleic Acid Amplification of Antimicrobial Agent Exposed Pathogens. The antimicrobial exposure plate is removed after the period of incubation. The specimen then undergoes a purification or lysis step. For example, the specimen may undergo a purification step (e.g., magnetic bead-based or other separation protocol to isolate genetic material). In another example, the specimen may undergo a cell lysis step. For example, buffer (e.g., lysis buffer) may be added and incubated in the thermal cycler for preparation for direct PCR. Next, the specimen may undergo a polymerase chain reaction (PCR) testing protocol, whereby a semi-quantitative PCR method is utilized. This may be completed either with or without a specific extraction protocol step. The pathogens can be individually targeted and detected, or a universal genetic sequence can be utilized to detect the antimicrobial susceptibility of the specimen as a whole.

[2] = system: pathogens of clinical samples; assay: Molecular phenotypic antimicrobial susceptibility test of clinical samples, extraction DNA purification step prior to PCR (Table 6)
Experimental: as §1, §2, §3, §4, §5, §6, §7, §8

[3] = system: pathogens of clinical samples; assay: Molecular phenotypic antimicrobial susceptibility test of clinical samples, direct PCR without a separate DNA purification step (Table 6)
Experimental: as §1, §2, §3, §4, §5, §6, §7, §8

[4] = E. coli, clinical sample of r10-r24
[5] = E. coli, clinical sample of r158-r172
[6] = E. faecalis, clinical sample of r93-r99
[7] = E. faecalis, clinical sample of r114-r120
[8] = E. faecalis, clinical sample of r151-r157
[9] = K. aerogenes, clinical sample of r136-r150
[10] = K. pneumoniae, clinical sample of r121-r135
[11] = M. morganii, clinical sample of r55-r69
[12] = M. morganii, clinical sample of r70-r84
[13] = P. mirabilis, clinical sample of r25-r39
[14] = P. mirabilis, clinical sample of r40-r54
[15] = S. aureus, clinical sample of r85-r92

## O=C1CN(/N=C/c2ccc([N+](=O)[O-])o2)C(=O)N1 [Nitrofurantoin]
[1]; E. coli isolate 1, Ct at control (average) 21.238
  Ct at Sensitive Breakpoint: 35.690
[1]; E. coli isolate 1, at sensitive breakpoint
  Molecular Antimicrobial Susceptibility Result: Sensitive (Antimicrobial wells with pathogen load detected below the control wells (typically >2 cycle thresholds later) may be reported as Sensitive)
[1]; E. coli isolate 2, Ct at control (average) 21.270
  Ct at Sensitive Breakpoint: 30.495
[1]; E. coli isolate 2, at sensitive breakpoint
  Molecular Antimicrobial Susceptibility Result: Sensitive (Antimicrobial wells with pathogen load detected below the control wells (typically >2 cycle thresholds later) may be reported as Sensitive)
[1]; E. coli isolate 3, Ct at control (average) 22.0995
  Ct at Sensitive Breakpoint: 21.722
[1]; E. coli isolate 3, at sensitive breakpoint
  Molecular Antimicrobial Susceptibility Result: Sensitive (Antimicrobial wells with pathogen load detected below the control wells (typically >2 cycle thresholds later) may be reported as Sensitive)
[1]; E. coli isolate 4, Ct at control (average) 17.5733
  Ct at Sensitive Breakpoint: 32.06
[1]; E. coli isolate 4, at sensitive breakpoint
  Molecular Antimicrobial Susceptibility Result: Sensitive (Antimicrobial wells with pathogen load detected below the control wells (typically >2 cycle thresholds later) may be reported as Sensitive)
[1]; E. coli isolate 5, Ct at control (average) 21.0933
  Ct at Sensitive Breakpoint: 33.53
[1]; E. coli isolate 5, at sensitive breakpoint
  Molecular Antimicrobial Susceptibility Result: Sensitive (Antimicrobial wells with pathogen load detected below the control wells (typically >2 cycle thresholds later) may be reported as Sensitive)
[2]; [4]
  Molecular Antibiotic Susceptibility Result: Sensitive (Antimicrobial wells with pathogen load detected below the control wells (typically >2 cycle thresholds later) may be reported as Sensitive)
[2]; E. coli, clinical sample of r10-r24, Ct Control Avg 18.112
  Ct: 29.981
[2]; [5]
  Molecular Antibiotic Susceptibility Result: Sensitive (Antimicrobial wells with pathogen load detected below the control wells (typically >2 cycle thresholds later) may be reported as Sensitive)
[2]; E. coli, clinical sample of r158-r172, Ct Control Avg 20.146
  Ct: 34.794
[2]; [6]
  Molecular Antibiotic Susceptibility Result: Sensitive (Antimicrobial wells with pathogen load detected below the control wells (typically >2 cycle thresholds later) may be reported as Sensitive)
[2]; E. faecalis, clinical sample of r93-r99, Ct Control Avg 22.987
  Ct: 38.744
[2]; E. faecalis, clinical sample of r100-r106, Ct Control Avg 23.073
  Ct: 37.449
[2]; E. faecalis, clinical sample of r107-r113, Ct Control Avg 22.144
  Ct: 32.584
[2]; [7]
  Molecular Antibiotic Susceptibility Result: Sensitive (Antimicrobial wells with pathogen load detected below the control wells (typically >2 cycle thresholds later) may be reported as Sensitive)
[2]; E. faecalis, clinical sample of r114-r120, Ct Control Avg 20.822
  Ct: 34.318
[2]; [8]
  Molecular Antibiotic Susceptibility Result: Sensitive (Antimicrobial wells with pathogen load detected below the control wells (typically >2 cycle thresholds later) may be reported as Sensitive)
[2]; [9]
  Molecular Antibiotic Susceptibility Result: Sensitive (Antimicrobial wells with pathogen load detected below the control wells (typically >2 cycle thresholds later) may be reported as Sensitive)
[2]; K. aerogenes, clinical sample of r136-r150, Ct Control Avg 19.994
  Ct: 38.755
[2]; [10]
  Molecular Antibiotic Susceptibility Result: Sensitive (Antimicrobial wells with pathogen load detected below the control wells (typically >2 cycle thresholds later) may be reported as Sensitive)
[2]; K. pneumoniae, clinical sample of r121-r135, Ct Control Avg 24.272
  Ct: 33.13
[2]; [11]
  Molecular Antibiotic Susceptibility Result: Sensitive (Antimicrobial wells with pathogen load detected below the control wells (typically >2 cycle thresholds later) may be reported as Sensitive)
[2]; [12]
  Molecular Antibiotic Susceptibility Result: Sensitive (Antimicrobial wells with pathogen load detected below the control wells (typically >2 cycle thresholds later) may be reported as Sensitive)
[2]; [13]
  Molecular Antibiotic Susceptibility Result: Resistant
[2]; P. mirabilis, clinical sample of r25-r39, Ct Control Avg 26.064
  Ct: 22.903
[2]; [14]
  Molecular Antibiotic Susceptibility Result: Resistant
[2]; P. mirabilis, clinical sample of r40-r54, Ct Control Avg 26.987
  Ct: 23.887
[2]; [15]
  Molecular Antibiotic Susceptibility Result: Sensitive (Antimicrobial wells with pathogen load detected below the control wells (typically >2 cycle thresholds later) may be reported as Sensitive)
[2]; S. aureus, clinical sample of r85-r92, Ct Control Avg 24.32
  Ct: 30.822
[3]; [4]
  Molecular Antibiotic Susceptibility Result: Sensitive (Antimicrobial wells with pathogen load detected below the control wells (typically >2 cycle thresholds later) may be reported as Sensitive)
[3]; E. coli, clinical sample of r10-r24, Ct control avg 12.97
  Ct: 24.883
[3]; [5]
  Molecular Antibiotic Susceptibility Result: Sensitive (Antimicrobial wells with pathogen load detected below the control wells (typically >2 cycle thresholds later) may be reported as Sensitive)
[3]; E. coli, clinical sample of r158-r172, Ct control avg 12.894
  Ct: 27.377
[3]; [6]
  Molecular Antibiotic Susceptibility Result: Sensitive (Antimicrobial wells with pathogen load detected below the control wells (typically >2 cycle thresholds later) may be reported as Sensitive)
[3]; E. faecalis, clinical sample of r93-r99, Ct control avg 22.011
  Ct: 36.826
[3]; E. faecalis, clinical sample of r100-r106, Ct control avg 21.027
  Ct: 33.684
[3]; E. faecalis, clinical sample of r107-r113, Ct control avg 20.529
  Ct: 32.294
[3]; [7]
  Molecular Antibiotic Susceptibility Result: Sensitive (Antimicrobial wells with pathogen load detected below the control wells (typically >2 cycle thresholds later) may be reported as Sensitive)
[3]; E. faecalis, clinical sample of r114-r120, Ct control avg 20.909
  Ct: 32.771
[3]; [8]
  Molecular Antibiotic Susceptibility Result: Sensitive (Antimicrobial wells with pathogen load detected below the control wells (typically >2 cycle thresholds later) may be reported as Sensitive)
[3]; E. faecalis, clinical sample of r151-r157, Ct control avg 18.551
  Ct: 37.634
[3]; [9]
  Molecular Antibiotic Susceptibility Result: Sensitive (Antimicrobial wells with pathogen load detected below the control wells (typically >2 cycle thresholds later) may be reported as Sensitive)
[3]; K. aerogenes, clinical sample of r136-r150, Ct control avg 13.854
  Ct: 29.821
[3]; [10]
  Molecular Antibiotic Susceptibility Result: Sensitive (Antimicrobial wells with pathogen load detected below the control wells (typically >2 cycle thresholds later) may be reported as Sensitive)
[3]; K. pneumoniae, clinical sample of r121-r135, Ct control avg […]
  Ct: 28.708
[3]; [11]
  Molecular Antibiotic Susceptibility Result: Sensitive (Antimicrobial wells with pathogen load detected below the control wells (typically >2 cycle thresholds later) may be reported as Sensitive)
[3]; M. morganii, clinical sample of r55-r69, Ct control avg 12.09
  Ct: 28.588
[3]; [12]
  Molecular Antibiotic Susceptibility Result: Sensitive (Antimicrobial wells with pathogen load detected below the control wells (typically >2 cycle thresholds later) may be reported as Sensitive)
[3]; M. morganii, clinical sample of r70-r84, Ct control avg 11.677
  Ct: 29.959
[3]; [13]
  Molecular Antibiotic Susceptibility Result: Resistant
[3]; P. mirabilis, clinical sample of r25-r39, Ct control avg 11.801
  Ct: 12.013
[3]; [14]
  Molecular Antibiotic Susceptibility Result: Resistant
[3]; P. mirabilis, clinical sample of r40-r54, Ct control avg 10.06
  Ct: 10.329
[3]; [15]
  Molecular Antibiotic Susceptibility Result: Sensitive (Antimicrobial wells with pathogen load detected below the control wells (typically >2 cycle thresholds later) may be reported as Sensitive)
[3]; S. aureus, clinical sample of r85-r92, Ct control avg 20.309
  Ct: 32.477
